Source: US7217730B2, “Method for the use of pyranoindole derivatives to treat infection with Hepatitis C virus” (Wyeth, priority 2002, dated 2007)

Molecular target: T1, NS5B from the BK strain (genotype 1b) (Hepatitis C virus genotype 1b, UniProt P26663)
T1 construct: NS5B from the BK strain (genotype 1b) is expressed in E. coli as a protein in which the 21 C-terminal amino acids are replaced; made in house; host or cells: E. coli
Assay: Hepatitis C polymerase inhibition, NS5B BK strain, 33P-GTP filter assay
Type: biochemical
Settings: Table 1A; for inhibition at 20 µM: 20 μM compound, read-out: HCV pol % inh at 20 μM; for IC50: NS5B BK strain, read-out: HCV pol BK IC50
Text: The ability of the compounds of the present invention to inhibit Hepatitis C Polymerase was established by the following experimental procedure: • NS5B from the BK strain (genotype 1b) is expressed in E. coli as a protein in which the 21 C-terminal amino acids are replaced with a short linker and a hexahistidine tag ([…]). The purified protein is mixed with radioactive nucleotides and allowed to replicate a heteropolymeric RNA substrate, primed by an endogenous short hairpin, resulting in an approximately 760 nt product. The radioactive product is captured on a filter and quantitated after removal of the unincorporated nucleotides.
Reagents: • 10 mM uridine 5′-triphosphate (UTP) (Promega # p116B) • 10 mM adenine 5′-triphosphate (ATP) (Promega # p113B) • 10 mM cytidine 5′-triphosphate (CTP) (Promega # p114B) • 10 mM guanine 5′-triphosphate (GTP) (Promega # p115B) • Bovine Serum Albumin (BSA) 10 mg/ml NEB (100× at 10 mg/ml) #007-BSA • RNasein (Promega #N251X) 40 U/μl • A-[33P]-GTP (NEN-easytides NEG/606H 3000 Ci/mmol, 370 MBq/ml, 10 mCi/ml) • Falcon polypropylene 96 well plates (Becton Dickinson # 351190) • Millipore Multiscreen assasy system-96 well-filtration plate #MADE NOB 50 • Optiphase Supermix (Wallac) formulated by Fisher • Millipore Multiscreen liner for use in microbeta 1450-106 casette [(Wallac) Perkin Elmer #1450-433] • 1 M(N-[2-hydroxyethyl]piperazine-N′-[2-ethanesulfonic acid]) (HEPES), pH 7.3 • Amersham Pharmacia Biotec (US16924-500 ml) • 1 M MgCl2 (SIGMA #M1028) • Dithiothreitol (DTT) (solid) (SIGMA #D9779) • RNase free water (GIBCO-BRL #10977-023) • Dimethyl sulfoxide (Aldrich #27685-5) • Basilen Blue (Sigma, B5520) • 0.5M ethylenediaminetetraacetic acid (EDTA), pH 8 (GIBCO-BRL #15575-020) • Dibasic sodium phosphate (7-hydrate) (Na2HPO4.7H2O; Baker#3824-07) • Phosphoric acid (Baker, #0262.02)
Further reagent preparation: • 0.5 M Na Phosphate buffer. Per liter, weigh 134 gr Na2HPO4.7H2O, add water to 900 ml. Adjust pH to 7.0 with phosphoric acid. Top off with water to 1 L. • Dilute nucleotides 1:1000 to 10 μM (GTP and CTP) or 1:100 to 100 μM (ATP and UTP) into RNase free water.
Procedure: • (1) Compounds 10 μl at 10 μg/ml in 15% dimethylsulfoxide (DMSO)
When starting from 100 μg/ml compound stock in […]: • Dispense 5 μl 30% DMSO per well • Dispense 5 μl compound (100 μg/ml) per well.
When starting from 50 μg/ml compound stock in 15% DMSO: • Add 10 μl compound per well. • (2) Enzyme Mix:
Add 20 μl enzyme mix into each well of the assay plate. Incubate compound and enzyme at room temperature for 15 minutes • (3) Template mix—prepare ahead
Spin down a tube of RNA (5 μg/tube stored in 75% ethanol and 0.3 M sodium acetate) in a microcentrifuge for 20 minutes at 4° C. One tube is enough for 1–1.5 plates. Remove as much ethanol from the tube as possible by inverting the tube. Be gentle, pellet RNA may not adhere to the tube. Vacuum dry the RNA. Resuspend the RNA by adding 1 ml of DEPC water, close the cap of the tube tightly. To dissolve RNA, incubate RNA solution on ice for ˜60 minutes and gently vortex. Spin briefly to ensure all RNA solution is down to the bottom of the tube before opening cap. Gently transfer RNA solution into a 5 ml or larger tube. Add another 3 ml of DEPC water (total 4 ml of volume).
Add the following volumes of reagents
Add 20 μl template mix per reaction (i.e. 20 ng of pOF per reaction or ˜3 nM) • (4) Incubate reaction at room temperature (22–25° C.) for 2 hours. • (5) Stop reaction by adding 50 μl of 170 mM EDTA. • Final concentration of EDTA is 85 mM. • (6) Prewet filters of Millipore multiscreen assay plate by adding 200 μl of 0.5 M sodium phosphate buffer, pH 7.0 into each well. Let stand at room temperature for 2–3 minutes. • (7) Place the multiscreen filter plate onto a Millipore Manifold and turn on vacuum to allow buffer to flow through. Turn off vacuum. Transfer 80 μl of the reaction product into each well of the filter plate. Let stand for 2–3 minutes. […]

T1 sequence (P26663 2420-2989): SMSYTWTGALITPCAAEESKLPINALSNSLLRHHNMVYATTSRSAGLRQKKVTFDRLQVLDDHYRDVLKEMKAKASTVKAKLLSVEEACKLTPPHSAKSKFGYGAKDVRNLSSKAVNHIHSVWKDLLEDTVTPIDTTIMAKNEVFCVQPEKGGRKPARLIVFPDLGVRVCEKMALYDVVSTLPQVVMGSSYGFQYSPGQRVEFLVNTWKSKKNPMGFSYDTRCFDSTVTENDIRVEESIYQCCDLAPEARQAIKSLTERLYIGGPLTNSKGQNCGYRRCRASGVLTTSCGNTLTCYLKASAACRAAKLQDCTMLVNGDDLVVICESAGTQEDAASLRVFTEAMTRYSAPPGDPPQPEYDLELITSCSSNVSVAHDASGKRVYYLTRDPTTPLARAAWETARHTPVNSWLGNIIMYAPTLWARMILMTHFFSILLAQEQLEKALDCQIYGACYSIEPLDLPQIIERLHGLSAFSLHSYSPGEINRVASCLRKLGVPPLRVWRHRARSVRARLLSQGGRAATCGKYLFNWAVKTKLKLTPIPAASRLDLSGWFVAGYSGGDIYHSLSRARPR

SMILES | inhibition at 20 µM | IC50
CCCC1(CC(=O)O)OCCc2c1[nH]c1cccc(-c3ccc(SC)cc3)c21 (stereo not shown) [Example 46, (5-[4-(methylthio)phenyl]-1-propyl-1,3,4,9-tetrahydropyrano[3,4-b]indol-1-yl)acetic acid] | 15% | > 20 µM
CCCC1(CC(=O)O)OCCc2c1[nH]c1cccc(-c3cccc(OC)c3)c21 (stereo not shown) [Example 47, [5-(3-methoxyphenyl)-1-propyl-1,3,4,9-tetrahydropyrano[3,4-b]indol-1-yl]acetic acid] | 15% | > 20 µM
CCCC1(CC(=O)O)OCCc2c1[nH]c1cccc(-c3ccc(F)cc3)c21 (stereo not shown) [Example 48, [5-(4-fluorophenyl)-1-propyl-1,3,4,9-tetrahydropyrano[3,4-b]indol-1-yl]acetic acid] | 18% | > 20 µM
CCCC1(CC(=O)O)OCCc2c1[nH]c1cccc(-c3cccc(Cl)c3)c21 (stereo not shown) [Example 49, [5-(3-chlorophenyl)-1-propyl-1,3,4,9-tetrahydropyrano[3,4-b]indol-1-yl]acetic acid] | < 5% | > 20 µM
C/C=C/CCC1(CC(=O)O)OCCc2c1[nH]c1c(Cl)ccc(Cl)c21 (stereo not shown) [Example 50, (5,8-dichloro-1-[(3E)-pent-3-enyl]-1,3,4,9-tetrahydropyrano[3,4-b]indol-1-yl)acetic acid] | 34% | > 20 µM
CC(C)C1(CC(=O)O)OCCc2c1[nH]c1c(Cl)ccc(Cl)c21 (stereo not shown) [Example 51, (5,8-dichloro-1-isopropyl-1,3,4,9-tetrahydropyrano[3,4-b]indol-1-yl)acetic acid] | 84% | 7 µM
O=C(O)CC1(c2ccccc2)OCCc2c1[nH]c1c(Cl)ccc(Cl)c21 (stereo not shown) [Example 52, (5,8-dichloro-1-phenyl-1,3,4,9-tetrahydropyrano[3,4-b]indol-1-yl)acetic acid] | 11% | > 20 µM
O=C(O)CC1(c2ccoc2)OCCc2c1[nH]c1c(Cl)ccc(Cl)c21 (stereo not shown) [Example 53, [5,8-dichloro-1-(3-furyl)-1,3,4,9-tetrahydropyrano[3,4-b]indol-1-yl]acetic acid] | 62% | 13 µM
CC(C)CCCC1(CC(=O)O)OCCc2c1[nH]c1c(Cl)ccc(Cl)c21 (stereo not shown) [Example 54, [5,8-dichloro-1-(4-methylpentyl)-1,3,4,9-tetrahydropyrano[3,4-b]indol-1-yl]acetic acid] | 6% | > 20 µM
COc1cc(C2(CC(=O)O)OCCc3c2[nH]c2c(Cl)ccc(Cl)c32)cc(OC)c1OC (stereo not shown) [Example 55, [5,8-dichloro-1-(3,4,5-trimethoxyphenyl)-1,3,4,9-tetrahydropyrano[3,4-b]indol-1-yl]acetic acid] | < 5% | > 20 µM
O=C(O)CC1(c2ccccc2F)OCCc2c1[nH]c1c(Cl)ccc(Cl)c21 (stereo not shown) [Example 56, [5,8-dichloro-1-(2-fluorophenyl)-1,3,4,9-tetrahydropyrano[3,4-b]indol-1-yl]acetic acid] | 3% | > 20 µM
O=C(O)CC1(c2ccc(C(=O)O)cc2)OCCc2c1[nH]c1c(Cl)ccc(Cl)c21 (stereo not shown) [Example 57, 4-[1-(carboxymethyl)-5,8-dichloro-1,3,4,9-tetrahydropyrano[3,4-b]indol-1-yl]benzoic acid] | 56% | 3 µM
CCCC1(CC(=O)O)OCCc2c1[nH]c1cccc(C#N)c21 (stereo not shown) [Example 58, (5-cyano-1-propyl-1,3,4,9-tetrahydro-pyrano[3,4-b]indol-1-yl)acetic acid] | 78% | 6.9 µM
CC(C)C1(CC(=O)O)OCCc2c1[nH]c1cccc(C#N)c21 (stereo not shown) [Example 59, (5-cyano-1-isopropyl-1,3,4,9-tetrahydropyrano[3,4-b]indol-1-yl)acetic acid] | 23% | > 20 µM
C/C=C/CCC1(CC(=O)O)OCCc2c1[nH]c1cccc(C#N)c21 (stereo not shown) [Example 60, {5-cyano-1-[(3E)-pent-3-enyl]-1,3,4,9-tetrahydropyrano[3,4-b]indol-1-yl}acetic acid] | 15% | > 20 µM
N#Cc1cccc2[nH]c3c(c12)CCOC3(CC(=O)O)c1ccoc1 (stereo not shown) [Example 61, [5-cyano-1-(3-furyl)-1,3,4,9-tetrahydropyrano[3,4-b]indol-1-yl]acetic acid] | 18% | > 20 µM
N#Cc1cccc2[nH]c3c(c12)CCOC3(CC(=O)O)c1ccccc1 (stereo not shown) [Example 62, (5-cyano-1-phenyl-1,3,4,9-tetrahydropyrano[3,4-b]indol-1-yl)acetic acid] | 32% | > 20 µM
COc1cc(C2(CC(=O)O)OCCc3c2[nH]c2cccc(C#N)c32)cc(OC)c1OC (stereo not shown) [Example 63, [5-cyano-1-(3,4,5-trimethoxyphenyl)-1,3,4,9-tetrahydropyrano[3,4-b]indol-1-yl]acetic acid] | 30% | > 20 µM
N#Cc1cccc2[nH]c3c(c12)CCOC3(CC(=O)O)c1ccc([N+](=O)[O-])cc1 (stereo not shown) [Example 64, [5-cyano-1-(4-nitrophenyl)-1,3,4,9-tetrahydropyrano[3,4-b]indol-1-yl]acetic acid] | 18% | > 20 µM
N#Cc1cccc2[nH]c3c(c12)CCOC3(CC(=O)O)c1cccc([N+](=O)[O-])c1 (stereo not shown) [Example 65, [5-cyano-1-(3-nitrophenyl)-1,3,4,9-tetrahydropyrano[3,4-b]indol-1-yl]acetic acid] | 27% | > 20 µM
N#Cc1cccc2[nH]c3c(c12)CCOC3(CC(=O)O)c1ccccc1F (stereo not shown) [Example 66, [5-cyano-1-(2-fluorophenyl)-1,3,4,9-tetrahydropyrano[3,4-b]indol-1-yl]acetic acid] | 28% | > 20 µM
CCCCC1(CC(=O)O)OCCc2c1[nH]c1c(Cl)ccc(Cl)c21 (stereo not shown) [Example 67, (1-butyl-5,8-dichloro-1,3,4,9-tetrahydropyrano[3,4-b]indol-1-yl)acetic acid] | 78% | 0.76 µM
CCCCC1(CC(=O)O)OCCc2c1[nH]c1cccc(Br)c21 (stereo not shown) [Example 68, (5-bromo-1-butyl-1,3,4,9-tetrahydropyrano[3,4-b]indol-1-yl)acetic acid] | 61% | 10.3 µM
CCCCC1(CC(=O)O)OCCc2c1[nH]c1cccc(Cl)c21 (stereo not shown) [Example 69, (1-butyl-5-chloro-1,3,4,9-tetrahydropyrano[3,4-b]indol-1-yl)acetic acid] |  | 5.5 µM
COC(=O)CC1(CC(=O)O)OCCc2c1[nH]c1cccc(Cl)c21 (stereo not shown) [Example 70, [5-chloro-1-(2-methoxy-2-oxoethyl)-1,3,4,9-tetrahydropyrano[3,4-b]indol-1-yl]acetic acid] | 22% | > 5 µM
